Experimental data reported in patent US20130005730A1, “NOVEL 1,3-OXAZOLIDINE COMPOUNDS AND THEIR USE AS RENIN INHIBITORS” (priority 2009, published 2013).
Where a name gives a salt, the structure may show the parent alone.

How the values were obtained:
[1] = Chemical stability at pH 7.4; type: physicochemical; settings: pH 7.4 aqueous phosphate buffer, 3 h incubation at 37° C., LCMS
Procedure: (§1) The compounds of the invention were studied for their chemical stability:
10 mM DMSO solution of the compound of the formula (I) was prepared. 10 μl of the solution was added to 1 ml of pH 7.4 aqueous phosphate buffer at 37° C. The solution was kept at 37° C. At each time points, a small aliquote was taken and the sample was analyzed by LCMS.

[2] = Chemical stability at pH 2.0; type: physicochemical; settings: pH 2 aqueous buffer, 3 h incubation at 37° C., LCMS
Procedure: as §1
10 mM DMSO solution of the compound of the formula (I) was prepared. 10 μl of the solution was added to 1 ml of pH 2 aqueous buffer at 37° C. The solution was kept at 37° C. At each time point, a small aliquote was taken and the sample was analyzed by LCMS.

[3] = Clinical Pharmacokinetics, 2008, 47, 515-531; cited from earlier work
[4] = Stability of the isolated compound (observation in synthesis); type: physicochemical; settings: after column chromatography, brown oil
Procedure: Chloromethyl (4S,5S)-5-((2S)-2-{[(3-amino-2,2-dimethyl-3-oxopropyl)amino]carbonyl}-3-methylbutyl)-4-{(2S)-2-[4-methoxy-3-(3-methoxypropoxy)benzyl]-3-methylbutyl}-1,3-oxazolidine-3-carboxylate (191 mg) and sodium iodide (135 mg) were mixed with dry acetonitrile and heated under stirring at 75° C. for 1 h 20 min. Full conversion according to LC-MS. Reaction mixture was mixed with water and extracted into DCM, washed with brine, dried over MgSO4. 186 mg of crude product was obtained, which was purified by column chromatography on silica gel (EtOAc) to give 72 mg of pure material as brown oil. […] LCMS: 748.3 [M+1]^+, 770.3 [M+Na]^+.

[5] = In vivo bioavailability experiment: plasma aliskiren after a single i.v. or oral dose; settings: male, Sprague-Dawley, rat, rats, plasma up to 24 h
Procedure: For comparison, aliskiren hemifumarate was dosed both i.v. (intravenous) and orally. For all experiment, the compounds were administrated to three individually weighted male Sprague-Dawley rats. For all po dosing, the dose was 25 μmole/kg in a dose volume of 8 ml/kg and the dose vehicle was 50% propylene glycol/50% pH 4.75 buffer (0.1M aqueous buffer of NaOAc/HOAc) by volume ratio. […] For the i.v. dosing of the compounds of invention, a vehicle of 45% PEG400/55% pH 4.75 buffer (0.1M aqueous buffer of NaOAc/HOAc) by volume ratio was used and the dose were 5 μmole/kg in a dose volume of 1.5 ml/kg. Male Sprague-Dawley rats were fasted for about 16-17 h before po dosing and fasting lasted about 2-3 h post-dose. Water was given ad libitum. The blood samples were taken at different time points up to 24 h. For i.v. dosing group, at 5 min, 15 min, 30 min, 1 h, 2 h, 4 h, 6 h, 8 h, 24 h. For oral doing group, at 15 min, 30 min, 1 h, 2 h, 4 h, […], 24 h. The blood samples were collected in heparinized tube and centrifuged at 3500 rpm for 5 min. The plasma samples were stored at about −20° C. for analysis.
After the work-up of the plasma samples, LC-MS/MS was used for the quantitation of the aliskiren and the compounds of the invention. Standard curves were made for aliskiren and the substances for study.

Row | SMILES | Chemical stability pH 7.4 (decomposition) [1] | Chemical stability pH 2 (decomposition) [2] | other results
1 | COCCCOc1cc(C[C@@H](C[C@H]2[C@H](C[C@H](C(=O)NCC(C)(C)C(N)=O)C(C)C)OCN2C(=O)OCOC(=O)C2(CN)CC2)C(C)C)ccc1OC [Example 53, {1-[({[((4S,5S)-5-((2S)-2-{[(3-amino-2,2-dimethyl-3-oxopropyl)amino]carbonyl}-3-methylbutyl)-4-{(2S)-2-[4-methoxy-3-(3-methoxypropoxy)benzyl]-3-methylbutyl}-1,3-oxazolidin-3-yl)carbonyl]oxy}methoxy)carbonyl]cyclopropyl}methanaminium trifluoroacetate] | C (Less than 50% decomposition after 3 h incubation at 37° C.) | A (Less than 5% decomposition after 3 h incubation at 37° C.) | –
2 | COCCCOc1cc(C[C@@H](C[C@H]2[C@H](C[C@H](C(=O)NCC(C)(C)C(N)=O)C(C)C)OCN2C(=O)OCOC(=O)OC2CCN(C)CC2)C(C)C)ccc1OC [Example 35, ({[(1-methylpiperidin-4-yl)oxy]carbonyl}oxy)methyl (4S,5S)-5-((2S)-2-{[(3-amino-2,2-dimethyl-3-oxopropyl)amino]carbonyl}-3-methylbutyl)-4-{(2S)-2-[4-methoxy-3-(3-methoxypropoxy)benzyl]-3-methylbutyl}-1,3-oxazolidine-3-carboxylate] | A (Less than 5% decomposition after 3 h incubation at 37° C.) | A (Less than 5% decomposition after 3 h incubation at 37° C.) | –
3 | COCCCOc1cc(C[C@@H](C[C@H]2[C@H](C[C@H](C(=O)NCC(C)(C)C(N)=O)C(C)C)OCN2C(=O)OCOC(=O)OC(C)C)C(C)C)ccc1OC [Example 12, (4S,5S)-(isopropoxycarbonyloxy)methyl 5-[(S)-2-(3-amino-2,2-dimethyl-3-oxopropylcarbamoyl)-3-methylbutyl]-4-{(S)-2-[4-methoxy-3-(methoxypropoxy)benzyl]-3-methylbutyl}oxazolidine-3-carboxylate] | B (Less than 25% decomposition after 3 h incubation at 37° C.) | A (Less than 5% decomposition after 3 h incubation at 37° C.) | –
4 | COCCCOc1cc(C[C@@H](C[C@H]2[C@H](C[C@H](C(=O)NCC(C)(C)C(N)=O)C(C)C)OCN2C(=O)OCOC(=O)C(C)(C)CO)C(C)C)ccc1OC [Example 27, [(3-hydroxy-2,2-dimethylpropanoyl)oxy]methyl (4S,5S)-5-((2S)-2-{[(3-amino-2,2-dimethyl-3-oxopropyl)amino]carbonyl}-3-methylbutyl)-4-{(2S)-2-[4-methoxy-3-(3-methoxypropoxy)benzyl]-3-methylbutyl}-1,3-oxazolidine-3-carboxylate] | A (Less than 5% decomposition after 3 h incubation at 37° C.) | A (Less than 5% decomposition after 3 h incubation at 37° C.) | –
5 | COCCCOc1cc(C[C@@H](C[C@H](N)[C@@H](O)C[C@H](C(=O)NCC(C)(C)C(N)=O)C(C)C)C(C)C)ccc1OC [Aliskiren, (2S,4S,5S,7S)—N-(2-Carbamoyl-2-methylpropyl)-5-amino-4-hydroxy-2,7-diisopropyl-8-[4-methoxy-3-(3-methoxypropoxy)phenyl]-octanamide, reference compound] | A (Less than 5% decomposition after 3 h incubation at 37° C.) | A (Less than 5% decomposition after 3 h incubation at 37° C.) | oral bioavailability [3]: about 2.6%
6 | COCCCOc1cc(C[C@@H](C[C@H]2[C@H](C[C@H](C(=O)NCC(C)(C)C(N)=O)C(C)C)OCN2C(=O)OCOC(=O)C(C)(C)C)C(C)C)ccc1OC [Example 6, (4S,5S)-pivaloyloxymethyl 5-[(S)-2-(3-amino-2,2-dimethyl-3-oxopropylcarbamoyl)-3-methylbutyl]-4-{(S)-2-[4-methoxy-3-(methoxypropoxy)benzyl]-3-methylbutyl}oxazolidine-3-carboxylate] | B (Less than 25% decomposition after 3 h incubation at 37° C.) | A (Less than 5% decomposition after 3 h incubation at 37° C.) | –
7 | COCCCOc1cc(C[C@@H](C[C@H]2[C@H](C[C@H](C(=O)NCC(C)(C)C(N)=O)C(C)C)OCN2C(=O)OCOC(=O)C2COCOC2)C(C)C)ccc1OC [Example 32, [(1,3-dioxan-5-ylcarbonyl)oxy]methyl (4S,5S)-5-((2S)-2-{[(3-amino-2,2-dimethyl-3-oxopropyl)amino]carbonyl}-3-methylbutyl)-4-{(2S)-2-[4-methoxy-3-(3-methoxypropoxy)benzyl]-3-methylbutyl}-1,3-oxazolidine-3-carboxylate] | B (Less than 25% decomposition after 3 h incubation at 37° C.) | A (Less than 5% decomposition after 3 h incubation at 37° C.) | –
8 | COCCCOc1cc(C[C@@H](C[C@H]2[C@H](C[C@H](C(=O)NCC(C)(C)C(N)=O)C(C)C)OCN2C(=O)OCOC(=O)C2(N)CC2)C(C)C)ccc1OC.O=C(O)C(F)(F)F [Example 43, {[(1-aminocyclopropyl)carbonyl]oxy}methyl (4S,5S)-5-((2S)-2-{[(3-amino-2,2-dimethyl-3-oxopropyl)amino]carbonyl}-3-methylbutyl)-4-{(2S)-2-[4-methoxy-3-(3-methoxypropoxy)benzyl]-3-methylbutyl}-1,3-oxazolidine-3-carboxylate, trifluoroacetate] | B (Less than 25% decomposition after 3 h incubation at 37° C.) | A (Less than 5% decomposition after 3 h incubation at 37° C.) | –
9 | COCCCOc1cc(C[C@@H](C[C@H]2[C@H](C[C@H](C(=O)NCC(C)(C)C(N)=O)C(C)C)OCN2C(=O)OCOC(=O)c2cncn2C)C(C)C)ccc1OC [Example 44, {[(1-methyl-1H-imidazol-5-yl)carbonyl]oxy}methyl (4S,5S)-5-((2S)-2-{[(3-amino-2,2-dimethyl-3-oxopropyl)amino]carbonyl}-3-methylbutyl)-4-{(2S)-2-[4-methoxy-3-(3-methoxypropoxy)benzyl]-3-methylbutyl}-1,3-oxazolidine-3-carboxylate] | A (Less than 5% decomposition after 3 h incubation at 37° C.) | A (Less than 5% decomposition after 3 h incubation at 37° C.) | –
10 | COCCCOc1cc(C[C@@H](C[C@H]2[C@H](C[C@H](C(=O)NCC(C)(C)C(N)=O)C(C)C)OCN2C(=O)OCI)C(C)C)ccc1OC [Example 14, Iodomethyl (4S,5S)-5-((2S)-2-{[(3-amino-2,2-dimethyl-3-oxopropyl)amino]carbonyl}-3-methylbutyl)-4-{(2S)-2-[4-methoxy-3-(3-methoxypropoxy)benzyl]-3-methylbutyl}-1,3-oxazolidine-3-carboxylate] | – | – | stability of the compound [4]: not stable and decomposes rather rapidly
11 | COCCCOc1cc(C[C@@H](C[C@H](N)[C@@H](O)C[C@H](C(=O)NCC(C)(C)C(N)=O)C(C)C)C(C)C)ccc1OC [Aliskiren hemifumarate] | – | – | AUC(0-t) ([5]; iv, i.v. 5 μmole/kg): 994 ± 162 ng·h/mL; AUC(0-t) ([5]; po, p.o. 25 μmole/kg): 28 ± 20.5 ng·h/mL
